One may read the IC50 as the concentration that gives 50% inhibition. Read a low IC50 as inhibition by little substance.

This passage reports IC50 results from patent US9884043B2, “RORgammaT inhibitors” (Merck Sharp & Dohme Corp., priority 2011, dated 2018).

The structures appear in SMILES notation.

The assay addresses T1, HIS-tagged RORγ-LBD (Homo sapiens, UniProt P51449).
T1 construct: HIS-tagged RORγ-LBD was recombinantly expressed in SF9 cells using a baculovirus expression system; made in house; host or cells: SF9 cells, baculovirus; crude lysate used
T1 sequence (P51449 269-508 limits assumed): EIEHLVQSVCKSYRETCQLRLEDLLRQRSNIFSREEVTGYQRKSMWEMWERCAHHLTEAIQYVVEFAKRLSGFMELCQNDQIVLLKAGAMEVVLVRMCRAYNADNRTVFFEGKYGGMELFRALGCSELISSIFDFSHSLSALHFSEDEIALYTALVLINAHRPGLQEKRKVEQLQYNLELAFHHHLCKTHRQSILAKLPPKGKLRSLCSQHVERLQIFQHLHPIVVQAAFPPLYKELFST
Briefly: TR-FRET assay (Protocol B), RORγ-LBD lysate / biotinylated SRC1-2 LXXLL peptide. The class given is biochemical. Conditions: unpurified RORγ-LBD lysate ~10 nM, SRC1-2 peptide 450 nM. The source says: Activation of RORgammaT activity can be measured using e.g. biochemical TR-FRET assay. In such an assay, interaction of cofactor-derived peptides with human RORgammaT-Ligand Binding Domain (LBD) can be measured.
To identify novel antagonists of RORgammaT, an assay was developed which employs the interaction of RORgammaT with its co-activator peptide SRC1_2. […] The assay was run following three slightly different protocols, i.e. Protocol A, Protocol B, and Protocol C, which are described below.
TR-Fret Assay (Protocol B)
HIS-tagged RORγ-LBD was recombinantly expressed in SF9 cells using a baculovirus expression system. The protein was not purified. Cells were lysed and the lysate was used as a source for RORγ-LBD for the assay. A 1:80 dilution of RORγ-LBD lysate in assay buffer (25 mM HEPES pH 7.0, 100 mM NaCl, 0.01% Tween, 0.1% BSA) was prepared and 5 μL was added to each well (RORγ-LBD final concentration ˜10 nM). Control wells received lysate from SF9 cells not expressing RORγ-LBD.
Compounds to be tested were diluted to 100× final test concentration in DMSO and further diluted to 4× final test concentration using assay buffer to provide the test compound mixture. An aliquot (5 μL) of the test compound mixture was added to each well.
On the technique in general: In TR-FRET formats the signal depends on donor and acceptor labels being close together.
`COc1cccc(F)c1C(=O)n1nc(-c2ccc(C(=O)O)cc2)c2ncccc21` [Example 24AM, 4-(1-(2-fluoro-6-methoxybenzoyl)-1H-pyrazolo[4,3-b]pyridin-3-yl)benzoic acid]: the IC50 was below 50 nM.
Molecule `O=C(O)c1ccc(-c2nn(C(=O)c3c(Cl)cccc3C(F)(F)F)c3cc(C(=O)NCCO)ccc23)c(F)c1` [Example 25H, 4-(1-(2-chloro-6-(trifluoromethyl)benzoyl)-6-(2-hydroxyethyl-carbamoyl)-1H-indazol-3-yl)-3-fluorobenzoic acid] displayed an IC50 below 50 nM.
The result for `Cc1cc(C(=O)O)c(F)cc1-c1nn(C(=O)c2c(Cl)cccc2C(F)(F)F)c2cccc(F)c12` [Example 24K, 4-(1-(2-chloro-6-(trifluoromethyl)-benzoyl)-4-fluoro-1H-indazol-3-yl)-2-fluoro-5-methylbenzoic acid] reads below 50 nM.
With `O=C(O)c1ccc(-c2nn(C(=O)c3c(Cl)cccc3C(F)(F)F)c3cc(C(=O)NCCO)ccc23)cc1` [Example 25A, sodium 4-(1-(2-chloro-6-(trifluoromethyl)benzoyl)-6-(2-hydroxyethylcarbamoyl)-1H-indazol-3-yl)benzoate], the IC50 was below 50 nM.
`O=C(O)c1cc(F)c(-c2nn(C(=O)c3c(Cl)cccc3C(F)(F)F)c3cccnc23)cc1Cl` [Example 24AJ, 2-chloro-4-(1-(2-chloro-6-(trifluoromethyl)-benzoyl)-1H-pyrazolo[4,3-b]pyridin-3-yl)-5-fluorobenzoic acid]: the IC50 lay within 50 to 500 nM.
In the case of `CC(=O)Oc1cc(-c2nn(C(=O)c3c(Cl)cccc3C(F)(F)F)c3cccc(F)c23)ccc1C(=O)O` [Example 26B, 2-acetoxy-4-(1-(2-chloro-6-(trifluoromethyl)benzoyl)-4-fluoro-1H-indazol-3-yl)benzoic acid] it was below 50 nM.
The result for `O=C(O)c1cccc(-c2nn(C(=O)c3c(Cl)cccc3C(F)(F)F)c3cccnc23)c1` [Example 24AC, 3-(1-(2-chloro-6-(trifluoromethyl)-benzoyl)-1H-pyrazolo[4,3-b]pyridin-3-yl) benzoic acid] reads 500 to 10000 nM; that for `Cc1cc(-c2nn(C(=O)c3c(Cl)cccc3C(F)(F)F)c3cccc(F)c23)ccc1C(=O)O` [Example 24P, 4-(1-(2-chloro-6-(trifluoromethyl)-benzoyl)-4-fluoro-1H-indazol-3-yl)-2-methylbenzoic acid], below 50 nM.
In turn, `N#Cc1ccc2c(-c3ccc(C(=O)O)cc3)nn(C(=O)c3c(Cl)cccc3C(F)(F)F)c2c1` [Example 29, 4-(1-(2-chloro-6-(trifluoromethyl)benzoyl)-6-cyano-1H-indazol-3-yl)benzoic acid] came in with an IC50 of 50 to 500 nM.
Molecule `O=C(O)c1cc(F)c(-c2nn(C(=O)c3c(Cl)cccc3C(F)(F)F)c3cccc(F)c23)cc1F` [Example 24W, 4-(1-(2-chloro-6-(trifluoromethyl)-benzoyl)-4-fluoro-1H-indazol-3-yl)-2,5-difluorobenzoic acid] yielded an IC50 below 50 nM.
On to `O=C(O)c1ccc(-c2nn(C(=O)c3c(Cl)cccc3C(F)(F)F)c3ccccc23)cc1F` [Example 24AQ, sodium 4-(1-(2-chloro-6-(trifluoromethyl)-benzoyl)-1H-indazol-3-yl)-2-fluoro benzoate], for which the IC50 is below 50 nM.
The molecule `Cc1cc(C(=O)O)ccc1-c1nn(C(=O)c2c(Cl)cccc2C(F)(F)F)c2cccnc12` [Example 24AF, 4-(1-(2-chloro-6-(trifluoromethyl)-benzoyl)-1H-pyrazolo[4,3-b]pyridin-3-yl)-3-methylbenzoic acid] had an IC50 below 50 nM.
As to `O=C(O)c1ccc(-c2nn(C(=O)c3c(Cl)cccc3C(F)(F)F)c3cc(C(=O)NCCCO)ccc23)cc1` [Example 25L, 4-(1-(2-chloro-6-(trifluoromethyl)benzoyl)-6-(3-hydroxypropyl-carbamoyl)-1H-indazol-3-yl)benzoic acid], the IC50 was below 50 nM.
Take `CC(=O)Oc1cc(-c2nn(C(=O)c3c(Cl)cccc3C(F)(F)F)c3cccnc23)ccc1C(=O)O` [Example 26I, 2-acetoxy-4-(1-(2-chloro-6-(trifluoromethyl)benzoyl)-1H-pyrazolo[4,3-b]pyridin-3-yl)benzoic acid]: the IC50 was below 50 nM.
The result for `O=C(NCCO)c1ccc2c(-c3ccc(C(=O)O)c(F)c3)nn(C(=O)c3c(Cl)cccc3C(F)(F)F)c2c1` [Example 25G, 4-(1-(2-chloro-6-(trifluoromethyl)benzoyl)-6-(2-hydroxyethyl-carbamoyl)-1H-indazol-3-yl)-2-fluorobenzoic acid] reads 50 to 500 nM; that for `O=C(O)c1ccc(-c2nn(C(=O)c3c(Cl)cccc3C(F)(F)F)c3ccccc23)c(F)c1` [Example 24AR, sodium 4-(1-(2-chloro-6-(trifluoromethyl)-benzoyl)-1H-indazol-3-yl)-3-fluoro benzoate], below 50 nM.
The molecule `O=C(O)c1c(F)cc(-c2nn(C(=O)c3c(Cl)cccc3C(F)(F)F)c3cccc(F)c23)cc1F` [Example 24R, 4-(1-(2-chloro-6-(trifluoromethyl)-benzoyl)-4-fluoro-1H-indazol-3-yl)-2,6-difluorobenzoic acid] returned an IC50 below 50 nM.
As for `O=C(O)c1ccc(-c2nn(C(=O)c3c(Cl)cccc3C(F)(F)F)c3cc(CO)ccc23)c(F)c1` [Example 24BF, 4-(1-(2-chloro-6-(trifluoromethyl)-benzoyl)-6-(hydroxymethyl)-1H-indazol-3-yl)-3-fluorobenzoic acid], the IC50 is below 50 nM.
In turn, `COc1cc(-c2nn(C(=O)c3c(Cl)cccc3C(F)(F)F)c3cccnc23)ccc1C(=O)O` [Example 24AI, 4-(1-(2-chloro-6-(trifluoromethyl)-benzoyl)-1H-pyrazolo[4,3-b]pyridin-3-yl)-2-methoxybenzoic acid] registered an IC50 of 50 to 500 nM.
In the case of `COc1cc(-c2nn(C(=O)c3c(Cl)cccc3C(F)(F)F)c3cccc(F)c23)c(F)cc1C(=O)O` [Example 24Y, 4-(1-(2-chloro-6-(trifluoromethyl)-benzoyl)-4-fluoro-1H-indazol-3-yl)-5-fluoro-2-methoxybenzoic acid] it was below 50 nM; in that of `O=C(O)c1ccc(-c2nn(C(=O)c3c(Cl)cccc3C(F)(F)F)c3cc(O)cc(F)c23)c(F)c1` [Example 24BD, 4-(1-(2-chloro-6-(trifluoromethyl)-benzoyl)-4-fluoro-6-hydroxy-1H-indazol-3-yl)-3-fluorobenzoic acid], 500 to 10000 nM.
In turn, `O=C(O)c1ccc(-c2nn(C(=O)c3c(Cl)cccc3C(F)(F)F)c3cccnc23)cc1F` [Example 24AH, 4-(1-(2-chloro-6-(trifluoromethyl)-benzoyl)-1H-pyrazolo[4,3-b]pyridin-3-yl)-2-fluorobenzoic acid] registered an IC50 below 50 nM.
As to `O=C(O)c1ccc(-c2nn(C(=O)c3c(Cl)cccc3C(F)(F)F)c3cc(O)ccc23)c(F)c1` [Example 24BB, 4-(1-(2-chloro-6-(trifluoromethyl)-benzoyl)-6-hydroxy-1H-indazol-3-yl)-3-fluorobenzoic acid], the IC50 is below 50 nM.
With `N#Cc1cc(-c2nn(C(=O)c3c(Cl)cccc3C(F)(F)F)c3cccc(F)c23)ccc1C(=O)O` [Example 24U, 4-(1-(2-chloro-6-(trifluoromethyl)-benzoyl)-4-fluoro-1H-indazol-3-yl)-2-cyano benzoic acid], the IC50 is below 50 nM.
Regarding `COc1cccc(F)c1C(=O)n1nc(-c2ccc(C(=O)O)cc2F)c2ccccc21` [Example 24AT, 3-fluoro-4-(1-(2-fluoro-6-methoxybenzoyl)-1H-indazol-3-yl)benzoic acid], the IC50 was below 50 nM.
